Data from patent publication US9381193B2, “Contraceptive methods and compositions” (WASHINGTON UNIVERSITY, priority 2011, dated 2016).

Tests used:
[1] = system: FVB/NJ mice; assay: Estrous cycles by vaginal smears in DHEA-fed mice; type: in vivo, mouse
Description: To determine the reversibility of DHEA, mice were fed the two higher DHEA diets that prevented normal estrous cycles for two weeks followed by regular rodent chow for two weeks. Estrous cycles and pregnancy rates were recorded.
Female FVB/NJ mice were obtained from Jackson Laboratories (Bar Harbor, Me., USA). Regular rodent chow was supplemented with DHEA at 0.01%, 0.1% and 0.6% w/w. Three-week-old mice had access to food and water ad libitum. Mice were fed control or DHEA-supplemented chow for two weeks. The Animal Studies Committee at Washington University School of Medicine reviewed and approved all animal experiments. Animals were maintained according to the Guide for the Care and Use of Laboratory Animals provided by the Institute for Laboratory Animal Research.
Vaginal smears were performed daily starting at eight weeks of age, after puberty, and establishment of regular estrous cycles. Vaginal cells were collected in 10 μl of phosphate buffered saline (PBS) and evaluated for stage of estrous by one investigator by light microscopy.

[2] = system: ICR female mice; assay: Intrauterine DHEA or 6-AN pellet and pregnancy outcome; type: in vivo, mouse
Description: ICR female mice had either placebo (n=26), DHEA (1.5 mg/60 days)(n=20), or 6-AN pellets (150, 15, 1.5 mcg/60 days)(n=24) placed into the uterine horn after index delivery. Females were then mated and litter size was measured over the following 120 days post pellet. Mice were housed according to the Institutional Animal Care and use Committee and NIH guidelines. Day to first litter, number of litters, number of pups, average pups/litter were recorded. Serum DHEA levels were quantified (Alpco, Salem, N.H.). All pellets (placebo, DHEA, 6-AN) were custom-formulated (Innovative Research, Inc).

[3] = system: murine ESCs; assay: In vitro decidualization of primary murine ESCs (Prp mRNA); type: cell-based, mouse; conditions: 3 days in vitro culture
Excerpt: (§1) In order to confirm that this is not a side effect of ESC immortalization with telomerase overexpression in this human cell line, the effect of DHEA on decidualization of primary ESC cultures from mouse and human uteri was also investigated. Murine ESCs were isolated from the gravid uterus at 4 days post coitus and cultured in vitro for 3 days to induce decidualization as described in the Methods. […] The human primary ESCs were isolated from uteri following hysterectomy for benign disease as outlined in the Methods and cultured in decidualization media for 9 days.
For in vitro decidualization of ESCs, female mice were sacrificed at 4dpc. Pregnancy was confirmed by flushing dissected uterine horns and ostia with HBSS and observing for presence of blastocysts. Uteri confirmed for pregnancy were cut into 1 mm^3 pieces and incubated in Dulbecco's modified Eagle's Medium:F12 medium (DMEM:F12) without phenol red supplemented with 2 g/liter Collagenase Type I (Gibco) for 60-90 min at 37° C. Tissues were vortexed every 15 min during incubation. Following incubation, the solution was passed through a 40 μm sieve (BD Falcon) and centrifuged at 1100 rpm for 5 min. […]

[4] = system: human primary ESCs; assay: In vitro decidualization of human primary ESCs (decidualization marker mRNA); type: cell-based; conditions: 9 days in decidualization media
Excerpt: as §1
Control samples received 0.1% ethanol vehicle control.

With `C[C@]12CC[C@H](O)CC1=CC[C@@H]1[C@@H]2CC[C@]2(C)C(=O)CC[C@@H]12` [DHEA, dehydroepiandrosterone] the Estrous cycle length ([1]; 0.01% DHEA diet, after two weeks) was “approximately five days longer than controls”, the Estrous cycle stage ([1]; 0.1% DHEA and 0.6% DHEA diet) was “remained in metestrus or diestrus for the entire evaluation period” and the “Mean serum levels of DHEA” value ([2]; DHEA pellet group, controls 0.265) was 0.512 ng/mL. The Average pups/litter ([2]; DHEA pellet, after 60 days, control 12.3) was 10.3 pups/litter, the “Reduction of average pups/litter size” value ([2]; DHEA pellet, first litter after placement of the pellet) was 55% and the Average pups/litter ([2]; DHEA pellet, first litter, control 13.0) was 5.9 pups/litter. For the same compound, the “Average time to first litter” value ([2]; intrauterine pellet: DHEA 1.5 mg/60 days, 6-AN 150, 15, 1.5 mcg/60 days, controls 27 days) was 34 days, the “Prp mRNA expression” value [3] was “decreased upon addition of DHEA in a concentration-dependent manner” and the “Expression of PRL and IGFBP1” value [4] was “decreased in a concentration dependent manner”.
